Measurements reported in ChEMBL document CHEMBL4622883, “Bisbenzylisoquinoline alkaloids and P-glycoprotein function: A structure activity relationship study” (Bioorg Med Chem, 2020).

Tests used:
Format in all cases: cell-based
[1] = molecular target: T1, ATP-dependent translocase ABCB1 (Homo sapiens, UniProt P08183); assay: Inhibition of P-glycoprotein-mediated Rhodamine-123 efflux in human MOLT4/DNR cells assessed as inhibition of P-glycoprotein efflux function at 10 uM incubated for 1 hr by flow cytometry
T1 sequence (P08183 whole entry): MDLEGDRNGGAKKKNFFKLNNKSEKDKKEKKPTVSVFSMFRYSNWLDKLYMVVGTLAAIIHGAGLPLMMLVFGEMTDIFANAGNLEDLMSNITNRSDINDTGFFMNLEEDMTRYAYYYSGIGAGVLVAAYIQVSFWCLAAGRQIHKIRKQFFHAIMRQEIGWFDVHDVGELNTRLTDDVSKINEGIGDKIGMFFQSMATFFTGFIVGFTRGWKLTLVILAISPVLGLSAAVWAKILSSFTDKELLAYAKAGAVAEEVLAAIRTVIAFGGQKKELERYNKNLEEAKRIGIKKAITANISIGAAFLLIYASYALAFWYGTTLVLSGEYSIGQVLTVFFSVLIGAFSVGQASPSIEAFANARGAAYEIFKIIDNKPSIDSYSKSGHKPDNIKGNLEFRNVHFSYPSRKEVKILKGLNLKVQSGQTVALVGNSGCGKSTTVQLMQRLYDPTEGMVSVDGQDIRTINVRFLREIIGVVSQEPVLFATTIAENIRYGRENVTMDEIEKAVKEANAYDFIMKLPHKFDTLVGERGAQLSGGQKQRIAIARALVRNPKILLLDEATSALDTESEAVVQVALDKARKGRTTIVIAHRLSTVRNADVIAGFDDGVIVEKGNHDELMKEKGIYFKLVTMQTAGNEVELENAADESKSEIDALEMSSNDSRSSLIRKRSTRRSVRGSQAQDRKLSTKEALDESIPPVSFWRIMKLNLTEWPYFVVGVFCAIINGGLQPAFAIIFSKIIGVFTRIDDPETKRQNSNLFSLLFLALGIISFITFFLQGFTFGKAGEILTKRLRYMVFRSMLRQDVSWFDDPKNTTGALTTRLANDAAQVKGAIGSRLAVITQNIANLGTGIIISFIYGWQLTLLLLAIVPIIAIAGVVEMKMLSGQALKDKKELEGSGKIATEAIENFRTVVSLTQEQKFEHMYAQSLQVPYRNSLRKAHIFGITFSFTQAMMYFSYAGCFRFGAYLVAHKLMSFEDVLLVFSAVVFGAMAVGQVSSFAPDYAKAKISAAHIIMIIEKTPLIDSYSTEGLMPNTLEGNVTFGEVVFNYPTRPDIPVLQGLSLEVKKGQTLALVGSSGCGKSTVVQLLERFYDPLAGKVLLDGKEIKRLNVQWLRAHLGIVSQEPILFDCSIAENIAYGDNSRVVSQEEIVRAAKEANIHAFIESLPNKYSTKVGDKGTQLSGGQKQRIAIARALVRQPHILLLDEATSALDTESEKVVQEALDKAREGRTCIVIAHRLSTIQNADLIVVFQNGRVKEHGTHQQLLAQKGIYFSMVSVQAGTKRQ

[2] = molecular target: T1, ATP-dependent translocase ABCB1; assay: Inhibition of P-glycoprotein-mediated Rhodamine-123 efflux in human MOLT4/DNR cells assessed as inhibition of P-glycoprotein efflux function at 1 uM incubated for 1 hr by flow cytometry
[3] = molecular target: T1, ATP-dependent translocase ABCB1; assay: Inhibition of P-glycoprotein-mediated Rhodamine-123 efflux in human MOLT4/DNR cells assessed as inhibition of P-glycoprotein efflux function at 0.3 uM incubated for 1 hr by flow cytometry
[4] = molecular target: T1, ATP-dependent translocase ABCB1; assay: Inhibition of P-glycoprotein-mediated Rhodamine-123 efflux in human MOLT4/DNR cells assessed as Rhodamine-123 accumulation incubated for 1 hr by flow cytometry

SMILES	inhibition (INH) [1]	inhibition (INH) [2]	inhibition (INH) [3]	inhibition (INH) [4]
COc1cc2c(cc1OC)[C@@H](Cc1ccc(O)cc1)N(C)CC2	Active			
COc1ccc2cc1Oc1ccc(cc1)C[C@H]1c3cc(c(OC)cc3CCN1C)Oc1c(OC)c(OC)cc3c1[C@H](C2)N(C)CC3 [FANCHININ]	Active	Active	Active	Dose-dependent effect
COc1ccc2cc1Oc1ccc(cc1)C[C@H]1c3c(cc4c(c3Oc3cc5c(cc3OC)CCN(C)[C@@H]5C2)OCO4)CCN1C [CEPHARANTHINE]	Active	Not Active		
COc1ccc2cc1Oc1ccc(cc1)C[C@H]1c3cc(c(OC)cc3CCN1C)Oc1c(OC)c(OC)cc3c1[C@@H](C2)N(C)CC3	Active	Not Active	Not Active	
COc1cc2c(cc1OC)[C@@H](Cc1ccc(Oc3cc(C[C@@H]4c5cc(OC)c(OC)cc5CCN4C)ccc3O)cc1)N(C)CC2 [DAURICINE]	Active			
COc1ccc2cc1Oc1ccc(cc1)C[C@H]1c3cc(c(OC)cc3CCN1C)Oc1c(O)c(OC)cc3c1[C@H](C2)N(C)CC3 [FANGCHINOLINE]	Active	Not Active		
COc1cc2c3cc1Oc1c(OC)c(OC)cc4c1[C@@H](Cc1ccc(O)c(c1)Oc1ccc(cc1)C[C@@H]3N(C)CC2)N(C)CC4 [BERBAMINE]	Active	Not Active	Not Active	
